Test [1] has as its target α-chymotrypsin (CT) from bovine pancreas, CT-positive initiator-pCBMA (Bos taurus, UniProt P00766). Put plainly: Michaelis-Menten kinetics, Suc-AAPF-pNA hydrolysis, CT-positive initiator-pCBMA. The class given is biochemical. As to conditions: pH 8, 37° C. As for the experimental part: (§1) CT and Lysozyme were used as received. AChE and Uricase were dialyzed in 25 mM sodium phosphate (pH 7.0) using a 25 kDa molecular weight cutoff dialysis tube in a refrigerator for 24 hours and then lyophilized. Copper (II) chloride, sodium ascorbate, 1,1,4,7,10,10-hexamethyltriethylenetetramine (HMTETA), 2-bromo-2-methylpropionyl bromide, 3-(dimethylamino)-1-propylamine, N,N′-diisopropylcarbodimine, fluorescamine, acetylthiocholine iodide, 5,5′-dithiobis(2-nitrobenzoic acid) (DTNB) were purchased from Sigma Aldrich. 4-bromobutyric acid and N-hydroxysuccinimide were purchased from TCI USA (Portland, OR). Micro BCA assay kit was purchased from Thermo Fisher Scientific. […]
(§2) CT-pCBMA and pSMA conjugate synthesis: A solution of monomer (230 mg for CBMA and 246 mg for SMA, 1.0 mmol respectively) and CT-initiator (23 mg for neutral and 25 mg for positive initiator, 10 μmol of initiator) in 100 mM sodium phosphate (20 mL, pH 7) was sealed and bubbled with nitrogen gas in an ice bath for 30 minutes. […] Conjugate CT content was determined by BCA assay as described elsewhere (Lee et al. 2005, supra). […]
(§3) CT: N-succinyl-Ala-Ala-Pro-Phe-p-nitroanilide (Suc-AAPF-pNA; SEQ ID NO:1) was used as a substrate for CT. […] Michaelis-Menten parameters were determined using nonlinear curve fitting of initial hydrolysis rate versus substrate concentration in GraphPad. […]

Test [2] has as its target α-chymotrypsin (CT) from bovine pancreas, CT-positive initiator (CT(+)) (Bos taurus, UniProt P00766). Put plainly: Michaelis-Menten kinetics, Suc-AAPF-pNA hydrolysis, CT-positive initiator. As to conditions: pH 8, 37° C.; CT-positive initiator vs native CT. The class given is biochemical. Here is the method:
as §1
(§4) CT: N-succinyl-Ala-Ala-Pro-Phe-p-nitroanilide (Suc-AAPF-pNA; SEQ ID NO:1) was used as a substrate for CT. […] The initial substrate hydrolysis rate was measured in triplicate by recording the increase in absorbance at 412 nm over the first 60 seconds after mixing using a Lambda 2 Perkin Elmer ultraviolet-visible spectrometer equipped with a temperature-controlled cell holder at 37° C. Michaelis-Menten parameters were determined using nonlinear curve fitting of initial hydrolysis rate versus substrate concentration in GraphPad. […]

The target of test [3] is α-chymotrypsin (CT) from bovine pancreas, CT-neutral initiator-pCBMA (Bos taurus, UniProt P00766). Put plainly: Michaelis-Menten kinetics, Suc-AAPF-pNA hydrolysis, CT-neutral initiator-pCBMA. The class given is biochemical. As to conditions: pH 8, 37° C. As for the experimental part: as §1, §2, §3
Test [4] addresses α-chymotrypsin (CT) from bovine pancreas, CT-mixed initiator (average of 9 neutral and 5 positive initiators per CT) (Bos taurus, UniProt P00766). Put plainly: Michaelis-Menten kinetics, Suc-AAPF-pNA hydrolysis, CT-mixed initiator. The class given is biochemical. Particulars: pH 8, 37° C. As for the experimental part: (§5) CT and Lysozyme were used as received. AChE and Uricase were dialyzed in 25 mM sodium phosphate (pH 7.0) using a 25 kDa molecular weight cutoff dialysis tube in a refrigerator for 24 hours and then lyophilized. Copper (II) chloride, sodium ascorbate, 1,1,4,7,10,10-hexamethyltriethylenetetramine (HMTETA), 2-bromo-2-methylpropionyl bromide, 3-(dimethylamino)-1-propylamine, N,N′-diisopropylcarbodimine, fluorescamine, acetylthiocholine iodide, 5,5′-dithiobis(2-nitrobenzoic acid) (DTNB) were purchased from Sigma Aldrich. 4-bromobutyric acid and N-hydroxysuccinimide were purchased from TCI USA (Portland, OR). Micro BCA assay kit was purchased from Thermo Fisher Scientific.
as §4, with “CT. Substrate (0-20 mg/mL in DMSO, 30 μL) was added to a 1.5 mL cuvette with sodium phosphate buffer (pH 8, 100 mM).” for “CT.”

In test [5] the target is α-chymotrypsin (CT) from bovine pancreas, CT-neutral initiator (CT(N)) (Bos taurus, UniProt P00766). Put plainly: Michaelis-Menten kinetics, Suc-AAPF-pNA hydrolysis, CT-neutral initiator. Particulars: pH 8, 37° C.; CT-neutral initiator vs native CT. The class given is biochemical. Here is the method:
as §1, §4

In test [6] the target is α-chymotrypsin (CT) from bovine pancreas, CT-positive initiator-pSMA (Bos taurus, UniProt P00766). Put plainly: Michaelis-Menten kinetics, Suc-AAPF-pNA hydrolysis, CT-positive initiator-pSMA. In kind it is biochemical. As to conditions: pH 8, 37° C.; CT-positive initiator-pSMA vs CT-neutral initiator-pSMA. As for the experimental part: as §1, §2, §3
In test [7] the target is acetylcholinesterase (AChE) from Electrophorus electricus, positive initiator (+) (Electrophorus electricus, UniProt O42275). Put plainly: Michaelis-Menten kinetics, acetylthiocholine iodide hydrolysis, AChE-positive initiator. In kind it is biochemical, Electrophorus electricus (electric eel). As to conditions: AChE-positive initiator vs AChE-neutral initiator. As for the experimental part: as §5
(§6) AChE: 100 μL of NHS-functionalized ATRP initiator solution in DMSO (12.7 μmol, 4.3 mg for neutral and 5.5 mg for positive initiator, respectively) was added to AChE solution (7 mg of AChE in 10 mL of 100 mM phosphate (pH 8.0)) and stirred at room temperature for 2 hours. […] The concentration of AChE initiator conjugates was determined using a Micro BCA Assay Kit.
AChE: Acetylthiocholine iodide (0-100 μL of 10 mM in 100 mM sodium phosphate buffer (pH 7.4)) and 10 μL of DTNB solution (50 mM in DMSO) was mixed with 100 mM sodium phosphate (980-880 μL, pH 7.4). […] Michaelis-Menten parameters were determined by nonlinear curve fitting of initial rate versus substrate concentration plots using Prism 7 software (GraphPad).

The target in test [8] is acetylcholinesterase (AChE) from Electrophorus electricus, neutral initiator (N)-pSMA (Electrophorus electricus, UniProt O42275). Put plainly: Michaelis-Menten kinetics, acetylthiocholine iodide hydrolysis, AChE (N)-pSMA. The class given is biochemical, Electrophorus electricus (electric eel). Particulars: pH 7.4, 37° C., DTNB. Here is the method:
as §5, §6, §2
AChE: Acetylthiocholine iodide (0-100 μL of 10 mM in 100 mM sodium phosphate buffer (pH 7.4)) and 10 μL of DTNB solution (50 mM in DMSO) was mixed with 100 mM sodium phosphate (980-880 μL, pH 7.4). […] The initial rate was monitored by recording the increasing in absorbance as 412 nm using an UV-VIS absorbance spectrometer with a temperature controlled cell folder at 37° C. Michaelis-Menten parameters were determined by nonlinear curve fitting of initial rate versus substrate concentration plots using Prism 7 software (GraphPad).

Data on two compounds can be found in patent US12053529B2, “Amino-reactive positively charged ATRP initiators that maintain their positive charge during synthesis of biomacro-initiators” (Carnegie Mellon University, priority 2018, dated 2024).

Starred links: 1 amine or outer side, 2 acyl side, 3 side chain; linkers in the order of their positions; H or OH if unused. Residues, ends and D or L forms follow the SMILES beside them. *: point of attachment. pNA = O=[N+]([O-])c1ccc(N*)cc1; Suc = O=C(CCC(=O)[*:2])[*:1]

acetylcholinesterase (AChE) from Electrophorus electricus, neutral initiator (N)-pSMA, sequence (O42275 24-633): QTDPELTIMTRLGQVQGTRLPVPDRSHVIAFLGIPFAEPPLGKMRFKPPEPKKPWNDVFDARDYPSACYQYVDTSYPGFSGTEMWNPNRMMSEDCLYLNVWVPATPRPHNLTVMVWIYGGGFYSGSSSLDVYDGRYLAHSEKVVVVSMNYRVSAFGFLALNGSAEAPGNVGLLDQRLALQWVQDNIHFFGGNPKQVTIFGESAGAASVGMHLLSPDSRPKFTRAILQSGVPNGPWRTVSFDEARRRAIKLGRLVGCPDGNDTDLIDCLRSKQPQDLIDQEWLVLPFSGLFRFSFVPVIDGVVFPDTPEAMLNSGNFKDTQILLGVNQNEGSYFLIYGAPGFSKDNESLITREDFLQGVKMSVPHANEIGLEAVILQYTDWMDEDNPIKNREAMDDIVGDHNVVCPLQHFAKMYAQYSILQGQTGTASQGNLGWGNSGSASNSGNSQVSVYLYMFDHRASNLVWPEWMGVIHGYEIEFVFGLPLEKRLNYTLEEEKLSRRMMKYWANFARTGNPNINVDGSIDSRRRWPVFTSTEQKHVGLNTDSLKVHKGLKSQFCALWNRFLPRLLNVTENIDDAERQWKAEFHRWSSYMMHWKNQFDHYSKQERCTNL
acetylcholinesterase (AChE) from Electrophorus electricus, positive initiator (+), sequence (O42275 24-633): as above

Regarding `C[C@H](NC(=O)CCC(=O)O)C(=O)N[C@@H](C)C(=O)N1CCC[C@H]1C(=O)N[C@@H](Cc1ccccc1)C(=O)Nc1ccc([N+](=O)[O-])cc1` [Suc-AAPF-pNA, N-succinyl-Ala-Ala-Pro-Phe-p-nitroanilide] (Suc-AAPF-pNA), the kcat/KM in test [1] (CT-positive initiator-pCBMA) is 420000 ± 20000 M⁻¹ s⁻¹; in test [3], 300000 ± 10000 M⁻¹ s⁻¹; in test [4] it was 200000 ± 10000 M⁻¹ s⁻¹. Moreover, the “overall catalytic efficiency versus native CT” value in test [1] (CT-positive initiator-pCBMA vs native CT) was “nearly double that of native CT”. Moreover, the “change in KM versus native CT” value in test [2] and in test [5] was “decrease in KM by half” throughout. In test [4], the turnover number (kcat) was 16.7 ± 0.4 s⁻¹. For the same compound, the “overall activity (kcat and KM) versus CT-neutral initiator-pSMA” value in test [6] is on record as roughly 20 fold.

Take `CC(=O)SCC[N+](C)(C)C.[I-]` [acetylthiocholine iodide]: in test [7], the “KM increase versus AChE-neutral initiator” value is reported as “about 2.4 ×”. In test [8], the KM result is “undetectable”, the kcat entry is reported as “undetectable” and the kcat/KM result is reported as “undetectable”.
